Reference: ChEMBL document CHEMBL3046193, “Promising antitumor effect of alpha-tocopheryl succinate in human colon and liver cancer cells” (Med Chem Res, 2012)
Calls of active or inactive are those of the source. No cut-off for these calls is given here.

What was measured:
HCT-116 [1] = assay: Cytotoxicity against Homo sapiens (human) HCT116 cells at 100 uM after 24 hr by SRB assay; assay type: functional
HCT-116 [2] = assay: Cytotoxicity against Homo sapiens (human) HCT116 cells assessed as DNA fragmentation at […] after 48 hr by agarose gel electrophoresis; assay type: functional, cell-based
MCF7 [3] = assay: Cytotoxicity against Homo sapiens (human) MCF7 cells at 20 to 100 uM by SRB assay; assay type: functional, cell-based; details: TDE = time-dependent effect
MCF7 [4] = assay: Cytotoxicity against Homo sapiens (human) MCF7 cells at 20 uM after 72 hr by SRB assay; assay type: functional, cell-based
HCT-116 [5] = assay: Induction of cell cycle arrest in Homo sapiens (human) HCT116 cells assessed as increase in G0/G1 phase cells at 52.3 uM at 48 hr by flow cytometric analysis relative to control; assay type: functional
HepG2 [6] = assay: Induction of apoptosis in Homo sapiens (human) HepG2 cells assessed as caspase9 cleavage at 55 uM at 16 hr by Western blot analysis; assay type: functional, cell-based
HepG2 [7] = assay: Induction of apoptosis in Homo sapiens (human) HepG2 cells assessed as effect on Bcl2 level at 55 uM from 3 to 24 hr by Western blot analysis; assay type: functional, cell-based
HepG2 [8] = assay: Induction of cell cycle arrest in Homo sapiens (human) HepG2 cells assessed as G2/M phase cells at 55 uM at 24 hr by flow cytometric analysis (reference value: 4 +/- 0.9 cells); assay type: functional
HepG2 [9] = assay: Induction of cell cycle arrest in Homo sapiens (human) HepG2 cells assessed as S phase cells at 55 uM at 16 hr by flow cytometric analysis (reference value: 46.4 +/- 3.6 cells); assay type: functional
HepG2 [10] = assay: Induction of cell cycle arrest in Homo sapiens (human) HepG2 cells assessed as G0/G1 phase cells at 55 uM at 16 hr by flow cytometric analysis (reference value: 50.4 +/- 1.7 cells); assay type: functional
HCT-116 [11] = assay: Cytotoxicity against Homo sapiens (human) HCT116 cells after 24 to 72 hr by SRB assay; assay type: functional, cell-based
HeLa [12] = assay: Cytotoxicity against Homo sapiens (human) HeLa cells at 40 uM after 72 hr by SRB assay; assay type: functional
HCT-116 [13] = assay: Cytotoxicity against Homo sapiens (human) HCT116 cells at 20 to 100 uM by SRB assay; assay type: functional, cell-based; details: TDE = time-dependent effect
HCT-116 [14] = assay: Induction of cell cycle arrest in Homo sapiens (human) HCT116 cells assessed as S phase cells at 52.3 uM at 24 hr by flow cytometric analysis (reference value: 33.6 +/- 0.6 cells); assay type: functional
HepG2 [15] = assay: Induction of cell cycle arrest in Homo sapiens (human) HepG2 cells assessed as increase in G0/G1 phase cells at 55 uM at 24 hr by flow cytometric analysis relative to control; assay type: functional
MCF7 [16] = assay: Cytotoxicity against Homo sapiens (human) MCF7 cells at 40 uM after 48 hr by SRB assay; assay type: functional
HCT-116 [17] = assay: Induction of cell cycle arrest in Homo sapiens (human) HCT116 cells assessed as G2/M phase cells at 52.3 uM at 16 hr by flow cytometric analysis (reference value: 9.7 +/- 0.8 cells); assay type: functional
HCT-116 [18] = assay: Induction of cell cycle arrest in Homo sapiens (human) HCT116 cells assessed as increase in G0/G1 phase cells at 52.3 uM at 24 hr by flow cytometric analysis relative to control; assay type: functional
HeLa [19] = assay: Cytotoxicity against Homo sapiens (human) HeLa cells at 20 uM after 72 hr by SRB assay; assay type: functional, cell-based
HCT-116 [20] = assay: Induction of cell cycle arrest in Homo sapiens (human) HCT116 cells assessed as S phase cells at 52.3 uM at 48 hr by flow cytometric analysis (reference value: 33.6 +/- 0.6 cells); assay type: functional
HepG2 [21] = assay: Cytotoxicity against Homo sapiens (human) HepG2 cells assessed as DNA fragmentation at 55 uM from 24 to 48 hr by agarose gel electrophoresis; assay type: functional, cell-based
HepG2 [22] = assay: Induction of cell cycle arrest in Homo sapiens (human) HepG2 cells assessed as S phase cells at 55 uM at 48 hr by flow cytometric analysis (reference value: 46.4 +/- 3.6 cells); assay type: functional
HCT-116 [23] = assay: Induction of cell cycle arrest in Homo sapiens (human) HCT116 cells assessed as G2/M phase cells at 52.3 uM at 48 hr by flow cytometric analysis (reference value: 9.7 +/- 0.8 cells); assay type: functional
HCT-116 [24] = assay: Antiangiogenic activity against Homo sapiens (human) HCT116 cells assessed as reduction in VEGF level at 52.3 uM after 48 hr by ELISA relative to control; assay type: functional; design: scale not given: the % may be the effect or the level left
HeLa [25] = assay: Cytotoxicity against Homo sapiens (human) HeLa cells after 24 to 72 hr by SRB assay; assay type: functional, cell-based
HepG2 [26] = assay: Induction of cell cycle arrest in Homo sapiens (human) HepG2 cells assessed as increase in G0/G1 phase cells at 55 uM at 48 hr by flow cytometric analysis relative to control; assay type: functional
HCT-116 [27] = assay: Induction of cell cycle arrest in Homo sapiens (human) HCT116 cells assessed as G0/G1 phase cells at 52.3 uM at 16 hr by flow cytometric analysis (reference value: 58.2 +/- 3.7 cells); assay type: functional
HepG2 [28] = assay: Cytotoxicity against Homo sapiens (human) HepG2 cells at 40 uM after 72 hr by SRB assay; assay type: functional
HCT-116 [29] = assay: Induction of cell cycle arrest in Homo sapiens (human) HCT116 cells assessed as G2/M phase cells at 52.3 uM at 24 hr by flow cytometric analysis (reference value: 9.7 +/- 0.8 cells); assay type: functional
HCT-116 [30] = assay: Induction of apoptosis in Homo sapiens (human) HCT116 cells assessed as effect on Bcl2 level at 52.3 uM from 3 to 24 hr by Western blot analysis; assay type: functional, cell-based
HCT-116 [31] = assay: Cytotoxicity against Homo sapiens (human) HCT116 cells at 20 uM after 72 hr by SRB assay; assay type: functional, cell-based
MCF7 [32] = assay: Cytotoxicity against Homo sapiens (human) MCF7 cells after 24 to 72 hr by SRB assay; assay type: functional, cell-based
HepG2 [33] = assay: Induction of cell cycle arrest in Homo sapiens (human) HepG2 cells assessed as G2/M phase cells at 55 uM at 16 hr by flow cytometric analysis (reference value: 4 +/- 0.9 cells); assay type: functional
HCT-116 [34] = assay: Induction of cell cycle arrest in Homo sapiens (human) HCT116 cells assessed as S phase cells at 52.3 uM at 16 hr by flow cytometric analysis (reference value: 33.6 +/- 0.6 cells); assay type: functional
HCT-116 [35] = assay: Cytotoxicity against Homo sapiens (human) HCT116 cells after 48 hr by SRB assay; assay type: functional, cell-based; details: HCT-116, 48 h
HeLa [36] = assay: Cytotoxicity against Homo sapiens (human) HeLa cells at 20 to 100 uM by SRB assay; assay type: functional, cell-based; details: TDE = time-dependent effect
HepG2 [37] = assay: Cytotoxicity against Homo sapiens (human) HepG2 cells after 48 hr by SRB assay; assay type: functional, cell-based; details: HepG2, 48 h
HepG2 [38] = assay: Cytotoxicity against Homo sapiens (human) HepG2 cells after 24 to 72 hr by SRB assay; assay type: functional, cell-based
HCT-116 [39] = assay: Cytotoxicity against Homo sapiens (human) HCT116 cells at 40 uM after 72 hr by SRB assay; assay type: functional
HCT-116 [40] = assay: Induction of apoptosis in Homo sapiens (human) HCT116 cells assessed as caspase9 cleavage at 52.3 uM at 16 hr by Western blot analysis; assay type: functional, cell-based
HepG2 [41] = assay: Antiangiogenic activity against Homo sapiens (human) HepG2 cells assessed as reduction in VEGF level at 55 uM from 24 to 48 hr by ELISA relative to control; assay type: functional, cell-based
HepG2 [42] = assay: Induction of cell cycle arrest in Homo sapiens (human) HepG2 cells assessed as S phase cells at 55 uM at 24 hr by flow cytometric analysis (reference value: 46.4 +/- 3.6 cells); assay type: functional
HeLa [43] = assay: Cytotoxicity against Homo sapiens (human) HeLa cells at 100 uM after 24 hr by SRB assay; assay type: functional
HepG2 [44] = assay: Cytotoxicity against Homo sapiens (human) HepG2 cells at 100 uM after 24 hr by SRB assay; assay type: functional
MCF7 [45] = assay: Cytotoxicity against Homo sapiens (human) MCF7 cells at 100 uM after 24 hr by SRB assay; assay type: functional
HepG2 [46] = assay: Cytotoxicity against Homo sapiens (human) HepG2 cells at 20 to 100 uM by SRB assay; assay type: functional, cell-based; details: TDE = time-dependent effect
HepG2 [47] = assay: Induction of cell cycle arrest in Homo sapiens (human) HepG2 cells assessed as G2/M phase cells at 55 uM at 48 hr by flow cytometric analysis (reference value: 4 +/- 0.9 cells); assay type: functional
HepG2 [48] = assay: Cytotoxicity against Homo sapiens (human) HepG2 cells at 20 uM after 72 hr by SRB assay; assay type: functional, cell-based
HCT-116 [49] = assay: Antiangiogenic activity against Homo sapiens (human) HCT116 cells assessed as reduction in VEGF level at 52.3 uM after 24 hr by ELISA relative to control; assay type: functional; design: scale not given: the % may be the effect or the level left

Cc1c(C)c2c(c(C)c1OC(=O)CCC(=O)O)CC[C@@](C)(CCC[C@H](C)CCC[C@H](C)CCCC(C)C)O2 [(+)-ALPHA-TOCOPHERYL SUCCINATE]
Activity (HCT-116 [1]): 47% | Activity (HCT-116 [2]): Active | Activity (MCF7 [3]): tde | Activity (MCF7 [4]): inactive | Activity (HCT-116 [5]): 47.3% | Activity (HepG2 [6]): Active | Activity (HepG2 [7]): inactive | Activity (HepG2 [8]): 2.1% | Activity (HepG2 [9]): 38.4% | Activity (HepG2 [10]): 60% | Activity (HCT-116 [11]): Dose-dependent effect | Activity (HeLa [12]): 20% | Activity (HCT-116 [13]): tde | Activity (HCT-116 [14]): 19.9% | Activity (HepG2 [15]): 27.4% | Activity (MCF7 [16]): 14% | Activity (HCT-116 [17]): 9.5% | Activity (HCT-116 [18]): 32.3% | Activity (HeLa [19]): inactive | Activity (HCT-116 [20]): 13.4% | Activity (HepG2 [21]): Active | Activity (HepG2 [22]): 15.4% | Activity (HCT-116 [23]): 2.7% | Activity (HCT-116 [24]): 54% | Activity (HeLa [25]): Dose-dependent effect | Activity (HepG2 [26]): 62.1% | Activity (HCT-116 [27]): 58.7% | Activity (HepG2 [28]): 15% | Activity (HCT-116 [29]): 4.4% | Activity (HCT-116 [30]): inactive | Activity (HCT-116 [31]): inactive | Activity (MCF7 [32]): Dose-dependent effect | Activity (HepG2 [33]): 2.9% | Activity (HCT-116 [34]): 32.7% | IC50 (HCT-116 [35]): 52.3 µM | Activity (HeLa [36]): tde | IC50 (HepG2 [37]): 55 µM | Activity (HepG2 [38]): Dose-dependent effect | Activity (HCT-116 [39]): 48% | Activity (HCT-116 [40]): Active | Activity (HepG2 [41]): Active | Activity (HepG2 [42]): 33.01% | Activity (HeLa [43]): 65% | Activity (HepG2 [44]): 55% | Activity (MCF7 [45]): 45% | Activity (HepG2 [46]): tde | Activity (HepG2 [47]): 1.8% | Activity (HepG2 [48]): inactive | Activity (HCT-116 [49]): 39%
